Patent US20160242416A1, “FUNGICIDAL ISOXAZOLINE CARBINOLS” (E I DU PONT DE NEMOURS AND COMPANY, priority 2015, published 2016)

Columns and labels:
[1] = system: Phytophthora infestans; format: in vivo; conditions: 50 ppm (asterisk); tomato late blight; 100 = 100% disease control, 0 = no control
[2] = system: Botrytis cinerea; test: Test B: gray mold, preventive spray on tomato seedlings; conditions: 100 = 100% disease control; for Test B rating (% disease control): gray mold on tomato, 0 = no control; for Test B disease control rating: 10 ppm test solution, 0 = no control relative to controls
[3] = system: Puccinia recondita f sp. tritici; test: Test F: wheat leaf rust, preventive spray on wheat seedlings; conditions: 100 = 100% disease control; for Test F rating (% disease control): wheat leaf rust, 0 = no control; for Test F disease control rating: 10 ppm test solution, 0 = no control relative to controls
[4] = system: Zymoseptoria tritici; test: Test E: wheat leaf blotch, preventive spray on wheat seedlings; conditions: 100 = 100% disease control; for Test E rating (% disease control): wheat leaf blotch, 0 = no control; for Test E disease control rating: 10 ppm test solution, 0 = no control relative to controls
[5] = system: Stagonospora nodorum; test: Test D: wheat glume blotch, preventive spray on wheat seedlings; conditions: 100 = 100% disease control; for Test D rating (% disease control): wheat glume blotch, 0 = no control; for Test D disease control rating: 10 ppm test solution, 0 = no control relative to controls
[6] = system: Erysiphe graminis f sp. tritici; test: Test G: wheat powdery mildew, preventive spray on wheat seedlings; conditions: 100 = 100% disease control; for Test G rating (% disease control): wheat powdery mildew, 0 = no control; for Test G disease control rating: 10 ppm test solution, 0 = no control relative to controls

OC(Cn1cncn1)(C1=NOC(c2c(F)cccc2F)C1)c1ccccc1 (mixture of isomers) [Compound 1]
Test C rating (% disease control) [1]: 0%
Test B rating (% disease control) ([2]; 50 ppm (asterisk)): 0%
Test F rating (% disease control) ([3]; 50 ppm (asterisk)): 99%
Test E rating (% disease control) ([4]; 50 ppm (asterisk)): 18%
Test D rating (% disease control) ([5]; 50 ppm (asterisk)): 99%
Test G rating (% disease control) ([6]; 50 ppm (asterisk)): 100%

OC(Cn1cncn1)(C1=NOC(c2ccccc2)C1)c1ccccc1 (mixture of isomers) [Compound 115]
Test C rating (% disease control) [1]: 0%
Test B rating (% disease control) ([2]; 50 ppm (asterisk)): 51%
Test F rating (% disease control) ([3]; 50 ppm (asterisk)): 68%
Test E rating (% disease control) ([4]; 50 ppm (asterisk)): 0%
Test D rating (% disease control) ([5]; 50 ppm (asterisk)): 100%
Test G rating (% disease control) ([6]; 50 ppm (asterisk)): 99%

OC(Cn1cncn1)(C1=NOC(c2ccc(F)cc2)C1)c1ccccc1 (mixture of isomers) [Compound 116]
Test C rating (% disease control) [1]: 0%
Test B rating (% disease control) ([2]; 50 ppm (asterisk)): 0%
Test F rating (% disease control) ([3]; 50 ppm (asterisk)): 80%
Test E rating (% disease control) ([4]; 50 ppm (asterisk)): 0%
Test D rating (% disease control) ([5]; 50 ppm (asterisk)): 100%
Test G rating (% disease control) ([6]; 50 ppm (asterisk)): 99%

OC(Cn1cncn1)(C1=NOC(c2ccc(Cl)cc2)C1)c1ccccc1 (mixture of isomers) [Compound 117]
Test C rating (% disease control) [1]: 0%
Test B rating (% disease control) ([2]; 50 ppm (asterisk)): 61%
Test F rating (% disease control) ([3]; 50 ppm (asterisk)): 99%
Test E rating (% disease control) ([4]; 50 ppm (asterisk)): 11%
Test D rating (% disease control) ([5]; 50 ppm (asterisk)): 100%
Test G rating (% disease control) ([6]; 50 ppm (asterisk)): 98%

OC(Cn1cncn1)(C1=NOC(c2ccccc2F)C1)c1ccccc1 (mixture of isomers) [Compound 118]
Test C rating (% disease control) [1]: 0%
Test B rating (% disease control) ([2]; 50 ppm (asterisk)): 68%
Test F rating (% disease control) ([3]; 50 ppm (asterisk)): 89%
Test E rating (% disease control) ([4]; 50 ppm (asterisk)): 0%
Test D rating (% disease control) ([5]; 50 ppm (asterisk)): 100%
Test G rating (% disease control) ([6]; 50 ppm (asterisk)): 99%

OC(Cn1cncn1)(C1=NOC(c2ccc(F)cc2)C1)c1ccc(F)cc1 (single isomer, unassigned) [Compound 119]
Test C rating (% disease control) [1]: 0%
Test B rating (% disease control) ([2]; 50 ppm (asterisk)): 0%
Test F rating (% disease control) ([3]; 50 ppm (asterisk)): 41%
Test E rating (% disease control) ([4]; 50 ppm (asterisk)): 0%
Test G rating (% disease control) ([6]; 50 ppm (asterisk)): 100%

OC(Cn1cncn1)(C1=NOC(Cc2ccc(C(F)(F)F)cc2)C1)c1ccc(Cl)cc1 (single isomer, unassigned) [Compound 203]
Test B rating (% disease control) ([2]; 10 ppm): 0%
Test F rating (% disease control) ([3]; 10 ppm): 100%
Test E rating (% disease control) ([4]; 10 ppm): 16%
Test D rating (% disease control) ([5]; 10 ppm): 55%
Test G rating (% disease control) ([6]; 10 ppm): 99%

CC(C)(C)CC(O)(Cn1cncn1)C1=NOC(Cc2ccc(Cl)cc2)C1 (single isomer, unassigned) [Compound 206]
Test B rating (% disease control) ([2]; 10 ppm): 9%
Test F rating (% disease control) ([3]; 10 ppm): 100%
Test E rating (% disease control) ([4]; 10 ppm): 13%
Test D rating (% disease control) ([5]; 10 ppm): 86%
Test G rating (% disease control) ([6]; 10 ppm): 99%

CC(C)(C)CC(O)(Cn1cncn1)C1=NOC(Cc2ccc(Cl)cc2)C1 (single isomer, unassigned) [Compound 207]
Test B rating (% disease control) ([2]; 10 ppm): 0%
Test F rating (% disease control) ([3]; 10 ppm): 100%
Test E rating (% disease control) ([4]; 10 ppm): 44%
Test D rating (% disease control) ([5]; 10 ppm): 99%
Test G rating (% disease control) ([6]; 10 ppm): 100%

CC(C)(C)CC(O)(Cn1cncn1)C1=NOC(Cc2ccc(C(F)(F)F)cc2)C1 (single isomer, unassigned) [Compound 226]
Test B disease control rating [2]: 0%
Test F disease control rating [3]: 100%
Test E disease control rating [4]: 0%
Test D disease control rating [5]: 51%
Test G disease control rating [6]: 99%

CC(C)(C)CC(O)(Cn1cncn1)C1=NOC(Cc2ccc(C(F)(F)F)cc2)C1 (single isomer, unassigned) [Compound 227]
Test B disease control rating [2]: 0%
Test F disease control rating [3]: 100%
Test E disease control rating [4]: 29%
Test D disease control rating [5]: 73%
Test G disease control rating [6]: 100%

CC(C)(C)C(O)(Cn1cncn1)C1=NOC(COc2cccc(Cl)c2)C1 (single isomer, unassigned) [Compound 230]
Test B disease control rating [2]: 99%
Test F disease control rating [3]: 100%
Test E disease control rating [4]: 8%
Test D disease control rating [5]: 100%
Test G disease control rating [6]: 99%

CC(C)(C)C(O)(Cn1cncn1)C1=NOC(COc2cccc(Cl)c2)C1 (single isomer, unassigned) [Compound 231]
Test B disease control rating [2]: 80%
Test F disease control rating [3]: 100%
Test E disease control rating [4]: 6%
Test D disease control rating [5]: 100%
Test G disease control rating [6]: 99%

CC(C)(C)C(O)(Cn1cncn1)C1=NOC(COc2cccc(Br)c2)C1 (single isomer, unassigned) [Compound 232]
Test B disease control rating [2]: 98%
Test F disease control rating [3]: 100%
Test E disease control rating [4]: 41%
Test D disease control rating [5]: 99%
Test G disease control rating [6]: 100%

CC(C)(C)C(O)(Cn1cncn1)C1=NOC(COc2cccc(Br)c2)C1 (single isomer, unassigned) [Compound 233]
Test B disease control rating [2]: 40%
Test F disease control rating [3]: 100%
Test E disease control rating [4]: 0%
Test D disease control rating [5]: 100%
Test G disease control rating [6]: 99%

CC(C)(C)C(O)(Cn1cncn1)C1=NOC(COc2ccc(-n3cc(Br)cn3)cc2)C1 (stereo not shown) [Compound 30]
Test B rating (% disease control) ([2]; 10 ppm): 99%
Test F rating (% disease control) ([3]; 10 ppm): 79%
Test E rating (% disease control) ([4]; 10 ppm): 0%
Test D rating (% disease control) ([5]; 10 ppm): 0%
Test G rating (% disease control) ([6]; 10 ppm): 100%

CC(C)(C)C(O)(Cn1cncn1)C1=NOC(COc2ccc(-n3cc(Cl)cn3)cc2)C1 (stereo not shown) [Compound 31]
Test B rating (% disease control) ([2]; 10 ppm): 0%
Test F rating (% disease control) ([3]; 10 ppm): 0%
Test E rating (% disease control) ([4]; 10 ppm): 0%
Test D rating (% disease control) ([5]; 10 ppm): 0%
Test G rating (% disease control) ([6]; 10 ppm): 100%

CC#CC(O)(Cn1cncn1)C1=NOC(c2ccc(Cl)cc2)C1 (stereo not drawn) [Compound 104, α-[5-(4-chlorophenyl)-4,5-dihydro-3-isoxazolyl]-α-1-propyn-1-yl-1H-1,2,4-triazole-1-ethanol]
Test B rating (% disease control) ([2]; 10 ppm): 0%
Test F rating (% disease control) ([3]; 10 ppm): 97%
Test E rating (% disease control) ([4]; 10 ppm): 0%
Test D rating (% disease control) ([5]; 10 ppm): 100%
Test G rating (% disease control) ([6]; 10 ppm): 93%

CC(C)(C)C(O)(Cn1cncn1)C1=NOC(COc2ccc(Cl)cc2)C1 (stereo not drawn) [Compound 174, α-[5-[(4-chlorophenoxy)methyl]-4,5-dihydro-3-isoxazolyl]-α-(1,1-dimethylethyl)-1H-1,2,4-triazole-1-ethanol]
Test B rating (% disease control) ([2]; 10 ppm): 58%
Test F rating (% disease control) ([3]; 10 ppm): 100%
Test E rating (% disease control) ([4]; 10 ppm): 12%
Test D rating (% disease control) ([5]; 10 ppm): 100%
Test G rating (% disease control) ([6]; 10 ppm): 100%

CC(C)(C)C(O)(Cn1cncn1)C1=NOC(COc2ccc(Cl)cc2)C1 (stereo not drawn) [Compound 175, α-[5-[(4-chlorophenoxy)methyl]-4,5-dihydro-3-isoxazolyl]-α-(1,1-dimethylethyl)-1H-1,2,4-triazole-1-ethanol]
Test B rating (% disease control) ([2]; 10 ppm): 0%
Test F rating (% disease control) ([3]; 10 ppm): 100%
Test E rating (% disease control) ([4]; 10 ppm): 1%
Test D rating (% disease control) ([5]; 10 ppm): 100%
Test G rating (% disease control) ([6]; 10 ppm): 100%

OC(Cn1cncn1)(C1=NOC2c3ccccc3CCC12)c1ccc(Cl)cc1 (stereo not shown) [Compound 222]
Test B disease control rating [2]: 9%
Test F disease control rating [3]: 100%
Test E disease control rating [4]: 23%
Test D disease control rating [5]: 50%
Test G disease control rating [6]: 99%

OC(Cn1cncn1)(C1=NOC2c3ccccc3CCC12)c1ccc(Cl)cc1 (stereo not shown) [Compound 223]
Test B disease control rating [2]: 0%
Test F disease control rating [3]: 100%
Test E disease control rating [4]: 63%
Test D disease control rating [5]: 0%
Test G disease control rating [6]: 99%
